Laboratory results from patent US7968575B2, “Nitric oxide donors and uses thereof” (priority 2004, dated 2011).
Entries after “also recorded” stand apart in the source; their conditions may differ.

Legend:
isolated rat aorta [1] = assay: In vitro vasorelaxation of epinephrine-contracted rat aortic rings (cumulative concentration-response curves); assay type: cell-based; conditions: isolated rat aorta pre-treated in vitro with 1 μM epinephrine; in words
From the text: Male Sprague Dawley rats were anaesthetized using intraperitoneal injection of ketamine and xylazine (50 and 10 milligram per kilogram, respectively) and the thoracic aorta, the large upper portion of the descending aorta, starting at the caudal border of the chest bone, was removed thereafter, while carefully removing the paraadventetial tissue surrounding the vessel. Aortae were cut into rings of 4-5 millimeters and mounted onto the tissue path. The path buffer (Krebs-bicrbonate) was constantly gassed with carbogen and maintained at 37° C. The rings were preloaded under 2 g tension and equilibrated for 90 minutes, while refreshing the buffer every 15 minutes. After stabilization, the rings were contracted with epinephrine (1 μM). Cumulative Concentration-Response Curves (CCRC) were measured for the vasorelaxing effect induced by adding various concentrations, ranging from 10^−10 M to 10^−5 M of Pet-2, Pet-3, Pet-7, Pet-8, Pet-12, Pet-24, Pet-43, Pet-59, Pet-147, Pet-152 and Pet-154, and glyceryltrinitrate (GTN), according to the procedure described in Feelich et al., Molecular Pharmacology, 56:243-253 (1999). The vehicle, which was used for this experiment was water:ethanol:propyleneglycol at proportional ratio of 1:1:1.
The vasorelaxing effect of the thiazole-derived NO-donors according to the present invention was measured on slices of thoracic aorta of rats contracted with epinephrine, as described hereinabove.

c-GMP [2] = assay: Cyclic-GMP measurement in aortic rat tissue (radioimmunoassay); assay type: cell-based; conditions: isolated rat aorta, FIGS. 25, 27 and 33; in words
Method: GTN (10^−6 M) was added to the chamber and, 1 minute after exposure to the drug, rings (usually 3-5) were taken, wrapped with aluminum foil and immediately frozen in liquid nitrogen for storage. Control sample group was treated with the vehicle solution only. At the time of analysis, rings were thawed, blotted over a dry gauzed and weighted. A known weight of tissue was homogenized in 2 ml ice-cold modified Hank's balanced salt solution containing (in gram/liter) NaCl 8; KCl 0.4; glucose 1; KH2PO4 0.06; Na2HPO4 0.047; Phenol red 0.017 and further containing 25 mM EDTA (disodium salt). The homogenate was centrifuged at 4000 g (force units) for 10 minutes at 2-4° C. and the supernatant was thereafter transferred into fresh pre-cooled test tube containing 1 ml of acetonitrile. The tubes were vortex mixed for a few seconds and subsequently centrifuged at 4000 g for 5 minutes at 2-4° C., to remove the precipitated protein. Each supernatant was transferred into a clean test tube and evaporated to dryness under a stream of nitrogen at 55° C. The dry residue was reconstituted with 10 volumes of Tris-EDTA buffer pH 7.5 (0.05 M Tris containing 4 mM EDTA). Aliquots of 100 μl of the reconstituted solution in duplicate were used for c-GMP measurements using Amersham RIA kit, as is described in Haj-Yehia & Benet [Pharmacology, 1995, 273, 1, pp. 94-100]. Standard curves were plotted with six concentrations (0, 0.5, 1, 2, 4 and 8 pmoles of c-GMP per tube).
The NO-tolerance effect of GTN and NO-donor compounds according to the present invention was measured by following the production of c-GMP in slices of thoracic aorta of rats. Thus, the production of c-GMP was measured as described in the methods section above for the reference NO-donor compound GTN, and for the NO-donors of the present invention Pet-2, Pet-3, Pet-7, Pet-8, Pet-10, Pet-12, Pet-24, Pet-59, Pet-147, Pet-149, Pet-152, Pet-154 and Pet-155.

c-GMP [3] = assay: Induction of in vivo nitrate tolerance (cGMP in aorta isolated after 16 hour infusion); design: species or system rat; conditions: in words; for tolerance induction in vivo: cGMP accumulation in isolated aorta of rats pre-treated in vivo with the compound
Method: For c-GMP levels and tolerance development, the rat's thoracic aorta was isolated after exposure to the tested compound in vivo, and measured as described above in the in vitro assays.
Male Sprague Dawley rats (220 to 250 grams) were housed under constant temperature and humidity conditions. Light was maintained at a 12/12 light dark cycle. Except for 12 hours before the experiment, when food fasting was initiated, all rats had free access to standard rat pellet diet and tap water. The animals were anesthetized by intraperitoneal injection of ketamine and xylazine combination (50 and 10 milligram per kilogram, respectively). […] The catheters were filled with normal saline solution containing 1000 IU/ml of heparin and plugged with a metal pin. Catheters were externalized to the back of the neck region and secured by a polyester felt disk.
After implantation, the rats were individually housed until they regained their preoperative weight and appeared healthy (3 to 4 days post-operation). At this time point (day 0), an osmotic mini-pump (Alza Corp., Palo Alto, Calif.) delivering constant volume (10 μl/hour) of vehicle or drug was connected to one of the intravenous catheters.
For inducing tolerance to the tested NO-donor according to the present invention, the animals received 200 μg/hour of the tested compound for 16 hours (short-term-induced tolerance). A similar number of animals were processed by the same surgical procedure and received the vehicle alone (10 μl/hour of a solution consisting of 30% ethanol and 30% propylene glycol in sterile distilled water for injection).
At the end of the infusion periods used for the development of tolerance (16 hour), the rats were anesthetized as described above, the two catheters were externalized and the delivering catheters were disconnected from the mini-pump. The abdomen was opened by midline incision and the thoracic aorta were isolated, washed and cleaned from the surrounding tissues. Strips of the treated aortas were pooled in chambers containing Krebs-Hanseliet buffer (10 ml), and exposed to 1 μM of the tested NO-donor (final concentration) for 120 seconds. The tissues were quickly collected and frozen in liquid nitrogen for cGMP measurement, described hereinabove.

isolated rat aorta [4] = assay: In vitro induction of tolerance: vasorelaxation of aortic rings pre-exposed to the NO-releasing compound; assay type: cell-based; conditions: vasorelaxation in rings pre-treated with 0.44 mM of the compound versus control rings; in words
Method: Aortic rings were prepared as described hereinabove, and were exposed to 0.44 mM GTN (vehicle was water:ethanol:propyleneglycol at proportional ratio of 1:1:1) for 1 hour before CCRC construction, to thereby induce tolerance to nitroglycerine. At the end of the tolerance induction period, rings were thrice washed with the path buffer (Krebs-bicrbonate) every 15 minutes for the following hour and then CCRC for vasorelaxation on GTN-induced tolerance rings were constructed for GTN (pretreated versus untreated rings, FIG. 15), in order to verify the ability to induce and measure GTN tolerance induction in vitro
Attempted induction of tolerance to the NO-donating compounds of the present invention was performed under the same conditions as for GTN. Thus, in an exemplary experiment, rings were exposed to 0.44 mM solution of Pet-3 in the attempt to induce tolerance for Pet-3. CCRC were then measured for the vasorelaxing effect of Pet-3 on a group of rings which were pre-exposed to Pet-3 as to induce tolerance to Pet-3, and for an untreated control group. The above protocol was repeated with Pet-2, Pet-7, Pet-8, Pet-12, Pet-24, Pet-43, Pet-149 and Pet-152.

isolated rat aorta [5] = assay: Cross-tolerance studies on aortic rings (GTN / Pet-12 pre-treatment); assay type: cell-based; conditions: in words
Method: Cross-tolerance studies were conducted using the same technique described above for measuring vasorelaxation of aortic rings from rats. Two groups of aortic rings samples were pre-treated with GTN, then one group was measured for vasorelaxation by GTN and the second group for vasorelaxation by Pet-12, an exemplary NO-donor according to the present invention. For the opposite cross-tolerance studies, two groups of aortic rings samples were pre-treated with Pet-12, then one group was measured for vasorelaxation by GTN and the second group for vasorelaxation by Pet-12.

Row | Compound | vasorelaxation effect as compared with glyceryltrinitrate (isolated rat aorta [1]) | levels of cGMP as compared with GTN (c-GMP [2]) | tolerance induction in vitro (isolated rat aorta [4]) | also measured
1 | Cc1nc(NC(=O)[C@@H](C)c2ccc(CC(C)C)cc2)sc1CCO[N+](=O)[O-] (stereo in doubt) [Pet-152, 2-(4-Isobutyl-phenyl)-N-[4-methyl-5-(2-nitrooxy-ethyl)-thiazol-2-yl]-propionamide] | superior | increased levels of cGMP | – | –
2 | CCc1nc(C)c(CCO[N+](=O)[O-])s1 [Pet-2, 2-Ethyl-4-methyl-5-(2-nitrooxy-ethyl)-thiazole] | superior | – | – | level of cGMP following a repeated treatment in vivo (c-GMP [3]; aorta of rats infused 200 μg/hour for 16 hours, then exposed to 1 μM compound for 120 seconds): remained substantially unchanged; tolerance induction in vivo (c-GMP [3]): absence of tolerance induction; also recorded: absence of tolerance effect
3 | Cc1nc(C)c(CCO[N+](=O)[O-])s1 [Pet-3, 2,4-Dimethyl-5-(2-nitrooxy-ethyl)-thiazole] | superior | increased levels of cGMP | absence of tolerance induction | –
4 | Cc1nc(N(C)C)sc1CCO[N+](=O)[O-] [Pet-7, Dimethyl-[4-methyl-5-(2-nitrooxy-ethyl)-thiazol-2-yl]-amine] | – | increased levels of cGMP | absence of tolerance induction | –
5 | Cc1nc(-c2ccccc2)sc1CCO[N+](=O)[O-] [Pet-8, 4-Methyl-5-(2-nitrooxy-ethyl)-2-phenyl-thiazole] | superior | increased levels of cGMP | – | –
6 | Cc1nc(N)sc1CCO[N+](=O)[O-] [Pet-10, 4-methyl-5-(2-nitrooxy-ethyl)-thiazole-2-ylamine] | – | increased levels of cGMP | – | –
7 | Cc1nc(-c2cccnc2)sc1CCO[N+](=O)[O-] [Pet-12, 3-[4-Methyl-5-(2-nitrooxy-ethyl)-thiazole-2-yl]-pyridine] | – | – | absence of tolerance induction | vasorelaxation in GTN-tolerant rings (cross-tolerance) (isolated rat aorta [5]; aortic rings pre-treated with epinephrine and then with GTN): absence of tolerance induction effect; also recorded: has no effect on the vasorelaxation capacity; tolerance after pre-treatment with Pet-12 (to itself and to GTN) (isolated rat aorta [5]; aortic rings pre-treated with epinephrine and then with Pet-12): absence of tolerance induction effect; also recorded: does not evoke tolerance to itself not to GTN; tolerance induction in vivo (c-GMP [3]): absence of tolerance induction; also recorded: absence of tolerance effect; also recorded: lack of tolerance induction
8 | CNc1cncc(-c2nc(C)c(CCO[N+](=O)[O-])s2)n1 [Pet-24, Methyl-{6-[4-methyl-5-(2-nitrooxy-ethyl)-thiazol-2-yl]-pyrazin-2-yl}-amine] | – | increased levels of cGMP | absence of tolerance induction | –
9 | Cc1nc(Nc2nc(C)c(CCO[N+](=O)[O-])s2)sc1CCO[N+](=O)[O-] [Pet-43, Bis-[4-methyl-5-(2-nitrooxy-ethyl)-thiazol-2-yl]-amine] | superior | – | absence of tolerance induction | –
10 | Cc1nc(-c2ccc(C(F)(F)F)cc2)sc1CCO[N+](=O)[O-] [Pet-59, 4-Methyl-5-(2-nitrooxy-ethyl)-2-(4-trifluoromethyl-phenyl)-thiazole] | superior | increased levels of cGMP | – | –
11 | CCNc1nc(C)c(CCO[N+](=O)[O-])s1 [Pet-147, Ethyl-[4-methyl-5-(2-nitrooxy-ethyl)-thiazol-2-yl]-amine] | – | increased levels of cGMP | – | –
12 | Cc1nc(Nc2cccc3ccccc23)sc1CCO[N+](=O)[O-] [Pet-149, [4-Methyl-5-(2-nitrooxy-ethyl)-thiazol-2-yl]-naphthalen-1-yl-amine] | superior | increased levels of cGMP | absence of tolerance induction | –
13 | Cc1nc(NC(=O)c2cccnc2)sc1CCO[N+](=O)[O-] [Pet-154, N-[4-methyl-5-(2-nitrooxy-ethyl)-thiazol-2-yl]-nicotinamide] | – | increased levels of cGMP | – | –
14 | C=CCNc1nc(C)c(CCO[N+](=O)[O-])s1 [Pet-155, allyl-[4-methyl-5-(2-nitrooxy-ethyl)-thiazol-2-yl]-amine] | superior | increased levels of cGMP | – | –
